Key:
[1] = Water solubility of Mn(II) based chelates; type: physicochemical; conditions: thermodynamic from solid, 25° C.
Method: The solubility of Mn(II) based chelates was confirmed by dissolving purified Mn(II) based chelates ( 99% purity) in a prescribed volume of solvent (Millipore water 18.2 MegaOhm from a Millipore BioCell Benchtop unit) to provide a solution of given volume. Solutions were visually inspected for homogeneity and filtered through a 0.45 um PTFE filter membrane if necessary. The assessment was carried out at 25° C. Final sample concentrations were confirmed by determination of final Mn(II) concentration via ICP-MS (Spectro Arcos FHS[…] 10003910 or S/N 12006120).

[2] = In vitro proton relaxivity in human serum; type: physicochemical; conditions: 60 MHz, 40° C.
Method: Both the longitudinal and transverse relaxation times were measured in human serum (BioreclamationIVT, Cat #HMSRM-M) to reflect the efficiency of the Mn(II) based chelates in an environment close to physiological. The relaxivity assessment was carried out at a concentration ranging from 5 to 0 mM Mn(II), at 40° C. using a Minispec Mq benchtop NMR relaxometer (Bruker Instruments, Rheinstetten, Germany) operating at 60 MHz (1.4 T) with an inversion recovery pulse sequence. The longitudinal and transverse relaxivities of the complexes (e.g., r1 and r2 respectively) were calculated by plotting the reciprocal of their relaxation time versus the manganese concentration as determined via ICP-MS (Spectro Arcos FHS12, S/N 10003910 or S/N 12006120) for each Mn(II) based chelates. The dependence of T1 by B0 (i.e., magnetic field) applied was assessed via the acquisition of ^1H Nuclear Magnetic Relaxation Dispersion (NMRD) profiles. A dedicated Stelar SMARTracer Fast Field Cycling relaxometer (0.01-10 MHz) and a Bruker WP80 NMR electromagnet adapted to variable field measurements (20-80 MHz) and controlled by a SMARTracer PC-NMR console was used to record the ^1H NMRD profiles over an extended range of Larmor Frequencies (from 0.01 to 80 MHz). The temperature was monitored by a VTC91 temperature control unit and maintained by a gas flow. The temperature was determined by previous calibration with a Pt resistance temperature probe. High field relaxivities were measured on a Bruker AVANCE NMR spectrometer at 400 MHz. A total of 25 data points per NMRD profile were recorded at each temperature, pH 6.9 and with a manganese concentration in the samples of 6.99, 6.78 and 4.45 mM for the prior art Mn Chelate, Mn Chelate 4 and Mn Chelate 3, respectively. The concentration of Mn(II) in all samples was verified by Bulk Magnetic Susceptibility (BMS) measurements. Relaxivity was computed by subtracting the relaxation rate of the medium (distilled water) from the relaxation rate of the Mn(II) complex solution at each field strength and dividing the difference by the manganese concentration verified by BMS measurements.
The linear fit (R2>0.99 for all compounds examined) of 1/T1 and 1/T2 as a function of Mn concentration generated the r1 or r2 values reported in Table 4 for human serum.

[3] = In vivo 54Mn biodistribution study in rats; conditions: rat; for % ID retained activity, Brain / % ID retained activity, Bladder / % ID retained activity, Blood / % ID retained activity, Heart / % ID retained activity, Kidney / % ID retained activity, Liver / % ID retained activity, Lungs / % ID retained activity, Muscle / % ID retained activity, Olfactory Bulb / % ID retained activity, Skin / % ID retained activity, Spleen / % ID retained activity, Tibia/Fibula / % ID retained activity, Femur / % ID retained activity, Pituitary Gland: 7 days post single iv 0.62 mmol/kg, LoD 0.002% ID (Prior Art, Chelate 4), 0.005% ID (Chelate 3); for % ID retained activity, Brain: ~30 μCi 54Mn; for in vivo stability from biodistribution profile: 7 days post single iv administration
Method: ^54Mn labeled chelates for biodistribution studies were prepared using the following method. To a 3 mL glass vial fitted with a magnetic stir bar was added the respective manganese containing chelate (1 mg) and 1.0 M ammonium formate, pH=4 (0.5 mL) (pH=5 for prior art Mn Chelate). ^54MnCl2 in 1.0 M HCl (˜500 μCi) was then added and the resulting solution was heated at 40° C. for 16 h. The resulting solution was purified via preparative HPLC to remove unchelated Mn. The radioactive fraction was collected and evaporated to dryness in vacuo. The radioactive residue was taken up in water containing non-radioactive Mn chelate (0.310 M) such that ˜30 μCi of radioactivity was formulated in a dose of 0.620 mmol Mn/kg with an injection volume of 2 mL/kg.
The experimental protocol conformed to the Guide for the Care and Use of Laboratory Animals and was approved by the IACUC at General Electric Global Research (Niskayuna, NY). Female Sprague-Dawley rats (130-150 g; Charles River Laboratories; Massachusetts; USA) were housed in standard cages, provided with ad libitum access to standard commercial food and water, and were maintained on an alternating 12-hr light-dark cycle in rooms with controlled temperature and humidity. Prior to injection of ^54Mn labelled chelates, rats were anesthetized via inhaled 3% Isoflurane (Piramal, NDC 66794-013-25; EZ-Anesthesia EZ700 Isoflurane Vaporizer, S/N 107). The injection site was prepped with alcohol wipes and a temporary 27 Ga catheter (Surflo SROX2419V) was placed in a tail vein. 30 μCi (0.74 MBq) of ^54Mn labelled chelate formulated with respective non-radioactive Mn(II) based chelate was dosed at 0.620 mmol non-radioactive Mn chelate/kg at an injection volume of 2 m L/kg was injected at a rate of 1 mL/min. Following injection animals were individually housed in wire bottom cages lined with filter paper until first urine void was collected. The rats were then cohoused in standard long term caging. 7 days post injection, the animals were sacrificed by CO2 immersion and organs and tissues of interest were removed and assayed for radioactivity using a Wizard 2480 gamma counter (Perkin Elmer, Beaconsfield, UK).
Naïve rats (Charles River Laboratories; Massachusetts; USA) received a single dose of 0.620 mmol/kg (approximately 30 μCi, 0.740 MBq) of test item via tail vein by injection. Additionally, one group of animals received osmolality matched saline (concentrated NaCl for injection: APP Pharmaceuticals part #NDC 63323-187-30 Lot #6008656 mixed with Sterile Water for Injection: Hospira part #NDC 0409-7990-09 Lot #49-396-DKas) as negative control (Table 1). After sacrifice, the organs and tissues were removed and assayed for residual radioactivity (i.e. ^54Mn organ retention) 7 days post single administration.

SMILES	solubility [1] [mM]	r1 (longitudinal relaxivity) [2] [mM⁻¹ s⁻¹]	% ID retained activity, Brain [3]	% ID retained activity, Bladder [3]	% ID retained activity, Blood [3]	% ID retained activity, Heart [3]	% ID retained activity, Kidney [3] [% ID]	% ID retained activity, Liver [3] [% ID]	% ID retained activity, Lungs [3]	% ID retained activity, Muscle [3]	% ID retained activity, Olfactory Bulb [3]	% ID retained activity, Skin [3]	% ID retained activity, Spleen [3]	% ID retained activity, Tibia/Fibula [3]	in vivo stability from biodistribution profile [3]	% ID retained activity, Femur [3]	% ID retained activity, Pituitary Gland [3]
CN(C[C@H](O)[C@@H](O)[C@H](O)[C@H](O)CO)C(=O)CCCN1CCN2Cc3cccc(n3)CN(CC1)C(CCC(=O)N(C)C[C@H](O)[C@@H](O)[C@H](O)[C@H](O)CO)C(=O)[O][Mn][O]C(=O)C2CCC(=O)N(C)C[C@H](O)[C@@H](O)[C@H](O)[C@H](O)CO (some centres unmarked) [Mn Chelate 3]	> 500	8.0	within endogenous level variability and LOD	≤LOD	≤LOD	≤LOD	0.026 ± 0.005	0.091 ± 0.017	≤LOD	≤LOD	≤LOD	≤LOD	≤LOD	≤LOD	improved stability compared to the prior art Mn Chelate	–	–
CN1CCN2Cc3cccc(n3)CN(CC1)C(CCC(=O)N(C)C[C@H](O)[C@@H](O)[C@H](O)[C@H](O)CO)C(=O)[O][Mn][O]C(=O)C2CCC(=O)N(C)C[C@H](O)[C@@H](O)[C@H](O)[C@H](O)CO (some centres unmarked) [Mn Chelate 4]	> 500	5.3	–	≤LOD	≤LOD	≤LOD	0.038 ± 0.017	0.075 ± 0.011	≤LOD	≤LOD	≤LOD	≤LOD	≤LOD	≤LOD	improved stability compared to the prior art Mn Chelate	≤LOD	≤LOD
CN1CCN2CC(=O)[O][Mn][O]C(=O)CN(CC1)Cc1cccc(n1)C2 [Prior Art Mn Chelate, reference compound]	> 500	3.0	0.007 ± 0.002% ID	≤LOD	≤LOD	≤LOD	0.012 ± 0.002	0.072 ± 0.017	≤LOD	≤LOD	≤LOD	≤LOD	≤LOD	0.002 ± 0.000% ID	–	0.003 ± 0.001% ID	≤LOD

Reference: patent publication US11884686B2, “Chelate compounds” (priority 2016, dated 2024)
